Reference: patent publication US20070208087A1, “Compounds, compositions and methods for the treatment of inflammatory diseases” (priority 2001, published 2007)
Values joined by “and” are separate entries in the source; they are usually repeats but may differ in a detail not shown here. Equal values may be shown once. Read-outs that look alike come from different tables or passages of the source.

Experiments:
[1] = system: EOC 13.31 microglia cells; assay: NO release inhibition in LPS/IFNγ stimulated microglia, concurrent treatment, Griess reaction at 24 hours (Example 6); assay type: cell-based; details: for NO release, Avg / inhibition at 50 µM: 24 hours; for inhibition at 50 µM: Microglia
Summary of the method: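 Confluent EOC 13.31 microglia were given 50 μM compound together with 1 pg/ml LPS plus 1 ng/ml IFNγ, or without stimulation. NO release was quantified spectrophotometrically by Griess reaction 24 hours later.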

[2] = system: EOC 13.31 microglial cells; assay: NO release inhibition screen in LPS/IFNγ stimulated microglia, Griess reaction at 48 hours (Example 7); assay type: cell-based; details: for inhibition at 50 µM: Microglia, 48 h
Summary of the method: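 EOC 13.31 microglia, confluent at 24 h, stimulated with 10 μg/ml LPS plus 10 ng/ml IFNγ in presence of 50 uM test compound. Nitric oxide release quantified by Griess reaction at 48 hours.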

[3] = Compound Only (without LPS/IFNγ), 50 μM
[4] = Compound + LPS/IFNγ, read-out: % inhibition of NO release
[5] = Table 2 summary, LPS/IFNγ, read-out: % Inhibition (summary of inhibition of NO release)

Row | Compound | inhibition of NO release, in words ([1]; 50 μM, LPS/IFNγ stimulated microglial cells) | NO release, Avg ([1]; Compound + LPS/IFNγ, 50 μM) | NO release, Avg [1, 3] | inhibition at 50 µM [1, 4] | inhibition at 50 µM [1, 5] | μM NO release Avg ([2]; 50 uM + 10 μg/ml LPS/10 ng/ml IFNγ, 48 hours) | % inhibition ([2]; 50 uM + 10 μg/ml LPS/10 ng/ml IFNγ, 48 hours, single replicates, 50 µM) | inhibition of NO release, in words ([2]; 50 uM, LPS/IFNγ stimulated microglia) | inhibition at 50 µM ([2]; 50 uM + 10 μg/ml LPS/10 ng/ml IFNγ, 48 hours, read-out: Avg. % Inhibition) | inhibition at 50 µM ([2]; 50 uM + 10 μg/ml LPS/10 ng/ml IFNγ, 48 hours, single replicates, read-out: % inhibition)
1 | O=C(N[C@@H]1CCCC[C@H]1NC(=O)c1ccc(O)c(O)c1)c1ccc(O)c(O)c1 (relative stereo) [Compound 26, N,N′-bis(3,4-dihydroxybenzoyl)-trans-1,2-diaminocyclohexane] | very effective inhibitors of NO release | 14.8384 µM | 0.0000 µM | 20.3% | 20.3% | – | – | – | – | –
2 | O=C(NCc1ccc(O)c(O)c1)C(=Cc1ccc(O)c(O)c1)NC(=O)c1ccc(O)c(O)c1 [Compound 21, α-(3,4-dihydroxybenzamido)-3,4-dihydroxycinnamic acid 3,4-dihydroxybenzyl amide] | – | 15.3486 µM | -0.0417 µM | 17.6% | 17.6% | – | – | – | – | –
3 | Oc1ccc(CNCc2ccc(O)c(O)c2)cc1O [Compound 73, bis(3,4-dihydroxybenzyl)amine] | – | – | – | – | – | 2.301 µM | 83.62% and 94.98% | effective inhibitors of NO release | 91.7% | 96.5%
